In patent US20230263786A1, “MODULATION OF DRUG-DRUG INTERACTIONS OF VADADUSTAT” (Akebia Therapeutics, Inc., priority 2020, published 2023):
“And” between values parts separate entries of the source, which are not always exact repeats. Identical values can stand only once. Blank lines part the entries; values can stand above or below the molecule they belong to.

Legend:
[1] = Phase I interaction study Part 2 Arm 1: sulfasalazine; assay type: in vivo, human
Protocol: The study included 3 periods as follow: • Screening: performed within 28 days prior to dosing on Day 1. • Treatment period: […] In Part 2 (Arm 1): For each dose of sulfasalazine administered, blood samples for PK analysis were collected at the following timepoints: pre-dose, 0.5, 1, 2, 3, 4, 5, 6, 8, 12, 18, 24, 36, 48, 60, 72 and 96 hours postdose. […] Arm 1 (sulfasalazine): 26 subjects were treated with the study drug. On the morning of Day 1, subjects received a single oral dose of sulfasalazine 500 mg after at least a 10-hour overnight fast. Subjects would remain fasted for approximately 4 hours after dosing. Following a 5-day washout period (Days 1-5) subjects received vadadustat 600 mg once daily beginning on Day 6 for 7 days (Days 6-12). […] On Day 9, subjects received their morning dose of vadadustat 600 mg along with a single oral dose of sulfasalazine 500 mg after at least a 10-hour overnight fast. Subjects would remain fasted for at least 4 hours after dosing. Subjects were discharged from the clinical research unit on the morning of Day 13.

[2] = Phase I interaction study Part 3 Arm 1: atorvastatin; assay type: in vivo, human; details: for AUC0-∞, Ratio of geometric mean value Combined/alone / Cmax, Ratio of geometric mean value Combined/alone: Atorvastatin 40 mg, Compound 1 600 mg; for AUCtau, Geometric LSM Ratio (A + V/A) / Cmax, Geometric LSM Ratio (A + V/A): atorvastatin 40 mg QD, vadadustat 600 mg QD; for AUC / Cmax: both sexes, human, plasma, oral, 40 mg; for AUC: heading: AUCtau, Geometric LSM; for Cmax: read-out: Cmax, Geometric LSM
Description: Subjects were discharged from the clinical research unit on the morning of Day 9.

[3] = Phase I ferrous sulfate tablet interaction study; details: for Metabolite Ratio AUC(0-inf) / Metabolite Ratio AUC(0-t) / Metabolite Ratio Cmax: Metabolite/Parent; for AUC(0-inf) / AUC(0-t) / Cmax / Tmax: metabolite in plasma; for AUC(0-inf) / AUC(0-t) / Cmax: mean; for Tmax: median;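 as to all read-outs here: crossover in fasted human subjects with four-day washout between periods, plasma glucuronide metabolite pharmacokinetics, ratios computed as metabolite over parent for AUC and Cmax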
Protocol: Pharmacokinetics. […] The ratio of metabolite to parent was calculated for each glucuronide metabolite for AUC(0-t); and AUC(0-inf) and Cmax.
Comparative Bioavailability. […] Factors incorporated in the model included: Sequence, Subject (Sequence), Period, and Treatment.
Treatment of Subjects. […] All subjects are dosed on the same day for Day 1 of Confinement Period 1, and are crossed over to the alternate treatment and are dosed on the same day for Day 1 of Confinement Period 2. Both treatments are administered in a fasted state, and a four-day Washout Period separates each Confinement Period.

[4] = Phase I single-dose study, moderate hepatic impairment versus normal hepatic function; assay type: in vivo, human; details: single 450 mg; for AUC0-inf, plasma, total / AUC0-last, plasma, total / Cmax, plasma, total / Elimination Half-life (t1/2): mean ± SD
Protocol: A phase I, open-label, parallel-group, single-dose study was conducted to evaluate the pharmacokinetics (PK) of 450 mg vadadustat administered in adults with moderate hepatic impairment (Child-Pugh Class B) versus those with normal hepatic function. The pharmacokinetic (pK) parameters of Compound 1 were characterized. Safety and tolerability were assessed throughout the study.
Inclusion criteria: participants were male and female adults between 18 and 70 years of age, with either normal hepatic function or moderate hepatic impairment based on the Child-Pugh classification (Child-Pugh Class B [score 7-9]). Moderate hepatic impairment was defined by the presence and severity of elevated bilirubin levels, decreased serum albumin levels, elevated international normalized ratios >2.20, ascites, and hepatic encephalopathy.
Pharmacokinetics. […] PK parameters Ae0-72, Fe %0-72, and CL, were estimated from the urine concentration-time profiles.
8 subjects with hepatic impairment and 8 matched subjects with normal hepatic function were enrolled in the study. All subjects received a single oral 450-mg dose of vadadustat on Day 1 and were required to fast for at least 10 hours before dosing and for 4 hours after dosing.

[5] = [14C]-labeled Compound 1 650 mg metabolism and excretion; assay type: in vivo, human; details: single oral 650 mg [14C]-labeled Compound 1, healthy adult males
Description: Compound 1 is metabolized via UGT, mainly producing O-glucuronide conjugates.
The urinary excretion rate of this drug and acyl glucuronide is less than 1% of the total radioactivity.

[6] = both sexes, human, in vivo, 500 mg
[7] = treatment Compound 1 450 mg alone

SMILES: Nc1ccc(O)c(C(=O)O)c1 [Mesalamine, mesalamine]
AUC0-last, Geometric LSM ([1]; Treatment S: sulfasalazine 500 mg alone): 220 ng·h/mL
AUC(0-inf) [1, 6]: 247 ng·h/mL
Cmax [1, 6]: 22 ng/mL

SMILES: CC(C)c1c(C(=O)Nc2ccccc2O)c(-c2ccccc2)c(-c2ccc(F)cc2)n1CC[C@@H](O)C[C@@H](O)CC(=O)O [o-hydroxy atorvastatin, (3R,5R)-7-[2-(4-fluorophenyl)-4-[(2-hydroxyphenyl)carbamoyl]-3-phenyl-5-propan-2-ylpyrrol-1-yl]-3,5-dihydroxyheptanoic acid]
AUC0-∞, Ratio of geometric mean value Combined/alone [2]: 112.01%
Cmax, Ratio of geometric mean value Combined/alone [2]: 91.20%
AUCtau, Geometric LSM Ratio (A + V/A) [2]: 111.34%
Cmax, Geometric LSM Ratio (A + V/A) [2]: 91.20%
AUC [2]: 96 ng·h/mL
Cmax [2]: 15 ng/mL

SMILES: O=C(O)CNC(=O)c1ncc(-c2cccc(Cl)c2)cc1O[C@@H]1O[C@H](C(=O)O)[C@@H](O)[C@H](O)[C@H]1O [Compound 1-O-glucuronide]
Metabolite Ratio AUC(0-inf) ([3]; treatment Compound 1 + Iron): 0.0943
Metabolite Ratio AUC(0-t) ([3]; treatment Compound 1 + Iron): 0.0935
Metabolite Ratio Cmax ([3]; treatment Compound 1 + Iron): 0.0748
Metabolite Ratio AUC(0-inf) ([3]; treatment Compound 1 alone): 0.104
Metabolite Ratio AUC(0-t) ([3]; treatment Compound 1 alone): 0.104
Metabolite Ratio Cmax ([3]; treatment Compound 1 alone): 0.0848
AUC(0-inf) [3, 7]: 44500 ng·h/mL
AUC(0-t) [3, 7]: 42800 ng·h/mL
Cmax [3, 7]: 6070 ng/mL
Tmax [3, 7]: 4.0 h
AUC(0-inf) ([3]; treatment Compound 1 + Iron): 19700 ng·h/mL
AUC(0-t) ([3]; treatment Compound 1 + Iron): 18600 ng·h/mL
Cmax ([3]; treatment Compound 1 + Iron): 2830 ng/mL
Tmax ([3]; treatment Compound 1 + Iron): 5.0 h
Ae0-72, cumulative amount excreted in urine up to 72 hours ([4]; Moderate Hepatic Impairment): 585 ± 125.1 mg
Fe%0-72, cumulative fraction excreted in urine ([4]; Moderate Hepatic Impairment): 82.8% and 82.8 ± 17.69%
AUC0-inf, plasma, total ([4]; Moderate Hepatic Impairment): 70900 ± 24300 ng·h/mL
AUC0-last, plasma, total ([4]; Moderate Hepatic Impairment): 68900 ± 24200 ng·h/mL
Cmax, plasma, total ([4]; Moderate Hepatic Impairment): 5850 ± 1500 ng/mL
Elimination Half-life (t1/2) ([4]; Moderate Hepatic Impairment): 6.01 ± 2.1 h
Ae0-72, cumulative amount excreted in urine up to 72 hours ([4]; Normal Liver Function): 473 ± 83.76 mg
Fe%0-72, cumulative fraction excreted in urine ([4]; Normal Liver Function): 66.9% and 66.9 ± 11.84%
AUC0-inf, plasma, total ([4]; Normal Liver Function): 63800 ± 21300 ng·h/mL
AUC0-last, plasma, total ([4]; Normal Liver Function): 62500 ± 21300 ng·h/mL
Cmax, plasma, total ([4]; Normal Liver Function): 6650 ± 2400 ng/mL
Elimination Half-life (t1/2) ([4]; Normal Liver Function): 4.74 ± 1.3 h
share of the total radioactivity (AUC0-∞) in plasma [5]: about 15%

The next lines start with the values.

AUC0-∞, Ratio of geometric mean value Combined/alone [2]: 167.57%
Cmax, Ratio of geometric mean value Combined/alone [2]: 230.48%
AUCtau, Geometric LSM Ratio (A + V/A) [2]: 175.60%
Cmax, Geometric LSM Ratio (A + V/A) [2]: 230.48%
AUC [2]: 8.92 ng·h/mL
Cmax [2]: 0.62 ng/mL
SMILES: CC(C)c1c(C(=O)Nc2ccc(O)cc2)c(-c2ccccc2)c(-c2ccc(F)cc2)n1CC[C@@H](O)C[C@@H](O)CC(=O)O [p-hydroxy atorvastatin, (3R,5R)-7-[2-(4-fluorophenyl)-4-[(4-hydroxyphenyl)carbamoyl]-3-phenyl-5-propan-2-ylpyrrol-1-yl]-3,5-dihydroxyheptanoic acid]

AUC(0-inf) [1, 6]: 42800 ng·h/mL
AUC(0-t) [1, 6]: 42400 ng·h/mL
Cmax [1, 6]: 2580 ng/mL
SMILES: Nc1ccc(S(=O)(=O)Nc2ccccn2)cc1 [Sulfapyridine, sulfapyridine]
